Measured values: patent publication US11370762B2, “Vinylarene derivative and application” (SHENYANG RESEARCH INSTITUTE OF CHEMICAL INDUSTRY CO., LTD., priority 2017, dated 2022)
Read-outs that look alike come from different tables or passages of the source. Each block holds one compound with its values, some of them ahead of it.

How the values were obtained:
[1] = test system: colon cancer CT26; test: In vivo pharmacodynamics, anti-colon cancer CT26 activity (intraperitoneal injection, once daily); conditions: CT26 in BALB/c mice; for activity at the end of the experiment compared with other groups: once daily dosing; for Inhibition rate (%) of tumor weight / Tumor weight: 50 mg/kg daily intraperitoneal injection, two weeks
Protocol: Pharmacodynamics of Some Compounds In Vivo (Intraperitoneal Injection):
(§1) The anti-colon cancer CT26 activity of these compounds was tested in vivo. 1×10^6 CT26 cells were inoculated subcutaneously in the right axillary of BALB/c mice by cell suspension inoculation. When the growth of tumors were clearly observed, 42 moderately tumor size animals were selected and randomly divided into test group, solvent control group and positive drug group, with 6 animals in each group. […] The compound groups were intraperitoneally injected with 50 mg/kg of the compound every day, while the solvent control group was given the same dosage with the same volume of mixed solvent. The weight of the mice and the length and short diameter of the transplanted tumors were measured three times a week during the administration. The tumor volume (VT), relative volume (RVT) and tumor proliferation rate (T/C %) were calculated. After two weeks of administration, nude mice bearing tumors in each experimental group were executed by neck-lifting method. Solid tumour tissues were completely dissected. The weight of tumors in each experimental group was measured and the growth inhibition rate (%) was calculated.

[2] = test system: colon cancer CT26; test: as above; conditions: 300 mg/kg daily by oral, two weeks, CT26 in BALB/c mice
[3] = biological target: T1, IDO1 enzyme in Hela cells (Homo sapiens, UniProt P14902); test: Inhibition of IDO1 enzyme in IFN-γ stimulated Hela cells (kynurenine read at 480 nm); format: cell-based; conditions: for inhibition at 0.1 µM: read-out: Inhibition rate (%) 100 nmol; for inhibition at 10 µM: read-out: Inhibition rate (%) 10 μmol; for activity compared with positive control drugs INCB024360 and IN-4 / IC50: Hela cells; for activity compared with positive control drugs INCB024360 and IN-4: IC50 comparison; for IC50: read-out: Inhibition rate IC50 (nmol/L) on IDO1 enzyme activity in Hela cells
T1 construct: endogenous in cells; host or cells: HeLa cells stimulated with human recombinant IFN-γ
T1 sequence (P14902 whole entry): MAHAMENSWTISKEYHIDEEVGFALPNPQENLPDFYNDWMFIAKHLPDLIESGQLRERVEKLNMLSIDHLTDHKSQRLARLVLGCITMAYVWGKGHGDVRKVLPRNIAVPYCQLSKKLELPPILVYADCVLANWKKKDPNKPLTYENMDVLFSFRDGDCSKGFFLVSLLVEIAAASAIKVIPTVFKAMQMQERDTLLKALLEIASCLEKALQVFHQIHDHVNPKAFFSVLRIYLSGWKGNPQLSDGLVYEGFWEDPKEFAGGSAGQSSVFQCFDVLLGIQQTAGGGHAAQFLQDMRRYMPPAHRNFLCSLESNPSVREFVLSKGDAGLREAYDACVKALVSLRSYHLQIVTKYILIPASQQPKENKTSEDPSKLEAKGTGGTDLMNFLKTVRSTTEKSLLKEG

[4] = test system: colon cancer CT26; test: In vivo pharmacodynamics, anti-colon cancer CT26 activity (oral administration, twice a day); set-up: species or system BALB/c mice; conditions: two weeks
Protocol: Pharmacodynamic of Some Compounds In Vivo (Oral Administration):
as §1, with “observed, 56” for “observed, 42”, “with 8” for “with 6”, “The” for “The compound groups were intraperitoneally injected with 50 mg/kg of the compound every day, while the”, “same” for “same dosage with the same”, “mixed solvents by oral. The above groups were administered twice a day.” for “mixed solvent.”

[5] = Oral pharmacokinetic test of compound 55 in rats; format: in vivo; conditions: male, Sprague-Dawley, plasma, rat, 30 mg/kg
Protocol: Pharmacokinetic Test and Results of Compound 55:
12 Male Sprague-Dawley rats were grouped random. The final concentration of compound 55 was 1.5 mg/ml. The drug was dissolved in a solvent system of 10% DMSO, 10% hydrogenated castor oil and […] (compounds were dissolved by DMSO, hydrogenated castor oil and saline in turn by vortex or ultrasound), and the drug solution was given orally (30 mg/kg). The rats were fasted overnight but had free access to water, feeding resumed 4 hours after administration. Blood samples (0.3-0.4 mL) were collected into heparinized tubes by Retinal vein plexus at 0, 0.17, 0.33, 0.67, 1, 2, 4, 7, 10 and 24 hours after administration orally. Tubes were anticoagulated with heparin sodium (5% heparin sodium solution filled EP tube, poured out, dried). 100 uL plasma was obtained by centrifugation (10000 rpm, 3 min) and stored at −20° C. before analysis.

[6] = test system: colon cancer CT26; test: In vivo pharmacodynamics, anti-colon cancer CT26 activity (oral administration, twice a day); set-up: species or system BALB/c mice; conditions: 50 mg/kg intraperitoneal injection (IP), two weeks
[7] = literature value, species not stated; cited from earlier work
[8] = 100 nmol compound, IFN-γ stimulated Hela cells, 48 hours
[9] = 10 μmol compound, IFN-γ stimulated Hela cells, 48 hours

inhibition at 0.1 µM [3, 8]: 100%
inhibition at 10 µM [3, 9]: 100%
IC50 [3]: 3.69 nmol/L
Compound: CCCCN(CCCC)c1ccc(/C(C)=C\C(=O)O)cc1NC(=O)Nc1ccc(F)cc1F [Compound 13]
activity compared with positive control drugs INCB024360 and IN-4 [3]: can reach or exceed those of the positive control drugs INCB024360 and IN-4

inhibition at 0.1 µM [3, 8]: 100%
inhibition at 10 µM [3, 9]: 100%
IC50 [3]: 0.18 nmol/L
Compound: CCCCN(CCCC)c1ccc(/C(C)=C\C(=O)O)cc1NC(=O)Nc1ccc(C)cc1F [Compound 14]
Inhibition rate (%) of tumor weight [1]: 19.02%
Tumor weight [1]: 2727.33 ± 404.42 mg
activity compared with positive control drugs INCB024360 and IN-4 [3]: can reach or exceed those of the positive control drugs INCB024360 and IN-4
Inhibition rate (%) of tumor weight ([4]; 50 mg/kg oral): 37.39%
Tumor weight ([4]; 50 mg/kg oral): 793.38 ± 246.34 mg

IC50 [3]: 3.69 nmol/L
Compound: C/C(=C/C(=O)O)c1ccc(N(CC(C)C)CC(C)C)c(NC(=O)Nc2ccc(C)cc2)c1 [Compound 51]
activity compared with positive control drugs INCB024360 and IN-4 [3]: can reach or exceed those of the positive control drugs INCB024360 and IN-4

AUC [5]: 43700 ng·h/mL
Cmax [5]: 16800 ng/mL
half-life [5]: 5 h
IC50 [3]: 0.09 nmol/L
Compound: C/C(=C/C(=O)O)c1ccc(N(CC(C)C)CC(C)C)c(NC(=O)Nc2ccc(F)cc2F)c1 [Compound 55, (Z)-3-(3-(3-(2,4-difluorophenyl)ureido)-4-(diisobutylamino)phenyl)but-2-enoic acid]
Inhibition rate (%) of tumor weight [6]: 34.97%
Tumor weight [6]: 824.00 ± 161.64 mg
Inhibition rate (%) of tumor weight [1]: 37.02%
Tumor weight [1]: 2121.17 ± 343.15 mg
activity at the end of the experiment compared with other groups [1]: equivalent to that of 1-MT
activity compared with positive control drugs INCB024360 and IN-4 [3]: can reach or exceed those of the positive control drugs INCB024360 and IN-4
Inhibition rate (%) of tumor weight ([4]; 20 mg/kg oral (low dose)): 12.42%
Tumor weight ([4]; 20 mg/kg oral (low dose)): 1109.75 ± 191.47 mg
Inhibition rate (%) of tumor weight ([4]; 50 mg/kg oral): 27.06%
Tumor weight ([4]; 50 mg/kg oral): 924.25 ± 150.35 mg
Inhibition rate (%) of tumor weight ([4]; 100 mg/kg oral (high dose)): 33.16%
Tumor weight ([4]; 100 mg/kg oral (high dose)): 847.00 ± 305.01 mg

IC50 [3]: 0.13 nmol/L
Compound: C/C(=C/C(=O)O)c1ccc(N(CC(C)C)CC(C)C)c(NC(=O)Nc2ccc(C)cc2F)c1 [Compound 56]
activity compared with positive control drugs INCB024360 and IN-4 [3]: can reach or exceed those of the positive control drugs INCB024360 and IN-4

IC50 [3]: 8.26 nmol/L
Compound: CCCCN(CCCC)c1ccc(/C(C)=C/C(=O)O)cc1NC(=O)Nc1ccc(C)cc1F [Compound 530]

inhibition at 0.1 µM [3, 8]: 72.2%
inhibition at 10 µM [3, 9]: 100%
Compound: CCOC(=O)/C=C(\C)c1ccc(N(CC(C)C)CC(C)C)c(NC(=O)Nc2ccc(F)cc2F)c1 [Compound 564, ethyl (E)-3-(3-(3-(2,4-difluorophenyl)ureido)-4-(diisobutylamino)phenyl) but-2-enoate]

inhibition at 0.1 µM [3, 8]: 42.1%
inhibition at 10 µM [3, 9]: 100%
Compound: CCCCN(CCCC)c1ccc(/C(C)=C/C(=O)OCC)cc1NC(=O)Nc1ccccc1Cl [Compound 1021]

inhibition at 0.1 µM [3, 8]: 21.2%
inhibition at 10 µM [3, 9]: 53.7%
Compound: CCCCN(CCCC)c1ccc(/C(C)=C/C(=O)OCC)cc1NC(=O)Nc1cccc(Cl)c1 [Compound 1022]

inhibition at 0.1 µM [3, 8]: 35.1%
inhibition at 10 µM [3, 9]: 100%
Compound: CCCCN(CCCC)c1ccc(/C(C)=C/C(=O)OCC)cc1NC(=O)Nc1ccc(Cl)cc1 [Compound 1023]

inhibition at 0.1 µM [3, 8]: 29.5%
inhibition at 10 µM [3, 9]: 58.2%
Compound: CCCCN(CCCC)c1ccc(/C(C)=C/C(=O)OCC)cc1NC(=O)Nc1ccc(Cl)c(C(F)(F)F)c1 [Compound 1024]

inhibition at 0.1 µM [3, 8]: 21%
inhibition at 10 µM [3, 9]: 54.3%
Compound: CCCCN(CCCC)c1ccc(/C(C)=C/C(=O)OCC)cc1NC(=O)Nc1cccc(C)c1 [Compound 1026]

The next lines start with the compound.

Compound: Cn1cc(C[C@@H](N)C(=O)O)c2ccccc21 [Compound 1-MT, 1-methyl-D-tryptophan]
activity at the end of the experiment compared with other groups [1]: better than that of INCB024360
Inhibition rate (%) of tumor weight [2]: 25.5%
Tumor weight [2]: 2509.17 ± 352.16 mg

Compound: CCCCN(CCCC)c1ccc(/C(C)=C/C(=O)OCC)cc1NC(=O)Nc1ccc(C)cc1 [Compound 518, ethyl (E)-3-(4-(dibutylamino)-3-(3-(p-tolyl)ureido)phenyl)but-2-enoate]
inhibition at 0.1 µM ([3]; HeLa, 48 h): 76.8%
inhibition at 10 µM ([3]; HeLa, 48 h): 100%

Compound: CCCCN(CCCC)c1ccc(/C(C)=C/C(=O)OCC)cc1NC(=O)Cc1ccccc1F [Compound 772]
inhibition at 0.1 µM [3, 8]: 74.2%
inhibition at 10 µM [3, 9]: 100%

Compound: CCCCN(CCCC)c1ccc(/C(C)=C/C(=O)O)cc1NC(=O)Cc1ccccc1F [Compound 779]
inhibition at 0.1 µM [3, 8]: 77.1%
inhibition at 10 µM [3, 9]: 100%

Compound: CCCCN(CCCC)c1ccc(/C(C)=C/C(=O)OCC)cc1NC(=S)Nc1ccccc1 [Compound 1025]
inhibition at 0.1 µM [3, 8]: 24.6%
inhibition at 10 µM [3, 9]: 68.8%

Compound: CCCCN(CCCC)c1ccc(/C(C)=C/C(=O)O)cc1NC(=O)Nc1ccccc1Cl [Compound 1027]
inhibition at 0.1 µM [3, 8]: 71.1%
inhibition at 10 µM [3, 9]: 100%

Compound: CCCCN(CCCC)c1ccc(/C(C)=C/C(=O)O)cc1NC(=O)Nc1cccc(Cl)c1 [Compound 1028]
inhibition at 0.1 µM [3, 8]: 41.5%
inhibition at 10 µM [3, 9]: 100%

Compound: CCCCN(CCCC)c1ccc(/C(C)=C/C(=O)O)cc1NC(=O)Nc1ccc(Cl)c(C(F)(F)F)c1 [Compound 1030]
inhibition at 0.1 µM [3, 8]: 23.8%
inhibition at 10 µM [3, 9]: 100%

Compound: CCCCN(CCCC)c1ccc(/C(C)=C/C(=O)O)cc1NC(=S)Nc1ccccc1 [Compound 1031]
inhibition at 0.1 µM [3, 8]: 29.6%
inhibition at 10 µM [3, 9]: 72.7%

Compound: NS(=O)(=O)NCCNc1nonc1C(=NO)Nc1ccc(F)c(Br)c1 [INCB024360, reference compound]
T1/2 reported in the literature [7]: 2.3 h
Inhibition rate (%) of tumor weight [1]: 10.23%
Tumor weight [1]: 3026.17 ± 409.75 mg
Inhibition rate (%) of tumor weight ([4]; 50 mg/kg oral): 33.66%
Tumor weight ([4]; 50 mg/kg oral): 840.63 ± 144.34 mg
